In patent US11666580B2, “Mechanism of resistance to bet bromodomain inhibitors” (Dana-Farber Cancer Institute, Inc., priority 2015, dated 2023):

Columns and labels:
[1] = test system: SUM149, SUM149R, SUM159, and SUM159R cells; experiment: Synergy studies (ATPlite, combination indices, isobolograms); format: cell-based, human
Procedure: SUM149, SUM149R, SUM159, and SUM159R cells were seeded in sterile, white, opaque 384-well microtiter plates (Thermo), using an automated dispensing system (BioTek EL406), at 1,000 cells per well in 50 μl of media. Drugs were delivered in DMSO by robotic pin transfer with a JANUS workstation (100 nl) to achieve a matrix of pairwise dose-response incubations of each compound, each pair having eight replicates. Following 72 hours of incubation, ATP levels were determined for treated cells and vehicle controls (ATPlite, PerkinElmer). Data were normalized to vehicle controls. Combination indices were determined using the median-effect principle of Chou and Talalay^49 (CalcuSyn Software). Isobologram plots were generated with GraphPad Prism software. Points represent paired values of drug concentrations assessed for synergism. The diagonal line signifies drug additivity. Points above the line represent antagonistic drug combinations, and those below the line represent synergistic drug combinations. Synergy assays were performed in triplicates and repeated 2-3 times.

[2] = test system: tumors derived from BBI-resistant SUM149 cells; experiment: Xenograft assay, BBI-resistant SUM149; format: in vivo, mice; details: administered along with JQ1
Procedure: (§1) For xenograft assays 5-6-weeks old female CrTac:NCr-Foxn1^nu and NOD.Cg-Prkdc^scid Il2rg^tm1Sug/JicTac mice were purchased from Taconic. Tumors were induced by bilateral orthotopic mammary fat pad injection of 1×10^6 cells in 50% Matrigel (BD Biosciences) in DMEM/F12 or Medium 171 (except for IDC50-X cells, which were injected with 3% FBS and 4 mg/ml collagen gel in Medium 171). Animal experiments were conducted following protocol 11-023 approved by the Dana-Farber Cancer Institute Animal Care and Use Committee.

[3] = test system: xenografts derived from SUM159R cells; experiment: Xenograft assay, SUM159R (BBI-resistant SUM159); format: in vivo, mice; details: administered along with JQ1
Procedure: as §1

[4] = test system: MDR (multi drug resistance) pumps in SUM159 and SUM159R cells; experiment: Multi-Drug Resistance (MDR) assay; format: cell-based, human; details: with JQ1
Procedure: Cell viability and growth assays (FIGS. 1A-1B, FIGS. 3A-3E, 3G, FIGS. 5D-5F, FIGS. 6C, 6E, 6I, FIG. 7A, FIG. 10D, FIGS. 14A-14C), cycle, apoptosis, and MDR assays were performed in triplicates and repeated 2-3 times. For cell proliferation assays, cells were plated at 500 cells per well in 96-well plates and treated the next day with inhibitors, DMSO or doxycycline (500 ng). Cells were cultured at 37° C. with 5% CO2 in the media described-above, and cell viability was measured using CellTiter-Glo three days after treatments. For cell growth assays, cells were plated at 5000 (SUM159) or 20000 (SUM149) cells per well in 6-well plates and treated the next day with inhibitors. Cells were counted every three days by cell counter. Cellular apoptosis was analyzed with an APC AnnexinV/7ADD Apoptosis Detection kit (BD Pharmingen). AnnexinV/7AAD assessments and cell cycle graphics were generated using FlowJo software V7.6.1 for Windows (Tree Star). Senescence Beta-gal staining was performed using Senescence β-Galactosidase staining kit from Cell signaling. Briefly, after JQ1 treatment (500 nM) for 72 h, SUM159 and MDA-MB-231 cells were fixed by Fixative Solution for 15 min, followed by β-Galactosidase solution incubation overnight at 37° C. The staining was checked under microscope for the development of blue color. […]

[5] = test system: BRD4-MED1 association in SUM159R cells; experiment: BRD4 immunoprecipitation followed by immunoblot for MED1, resistant cells; format: cell-based, human; details: SUM159R, 3 hrs treatment
Procedure: Cells were lysed five days after transfection with siRNAs in RIPA buffer. Proteins were resolved in SDS-polyacrylamide gels (4%-12%) and transferred to PVDF membranes by using a Tris-glycine buffer system. […] Cells were incubated on ice for 15 min and gently vortexed every 5 min. […] After centrifugation of the lysates at 14 g for 10 min at 4° C., supernatant was diluted with 0.6 ml buffer A, and added NP-40 to final 0.5% and treated with DNase I. The samples were then incubated at 4° C. overnight with BRD4 or Flag antibodies at 1:100 dilution and immunoprecipitates were collected on Dynabeads Protein G for 2 hr. Beads were washed with buffer B containing 150 mM NaCl and 0.5% NP-40 three times and then resuspended in gel loading buffer. Immunoblotting and immunoprecipitation experiments were repeated 2-3 times.

[6] = test system: phospho-BRD4 (pBRD4); experiment: Immunoblot analysis of phospho-BRD4; format: cell-based, human; details: SUM159R, SUM149R, and other cell lines; short-term treatment
Description: Immunoblotting and immunoprecipitation experiments were repeated 2-3 times.

[7] = summary statement, resistant cells

SMILES | Synergy with JQ1 [1, 7] | Synergy with JQ1 ([1]; synergy screens, 72 hours) | Tumor weight [2] | Tumor weight [3] | further results
O=C(O)c1ccc2c(c1)nc(Nc1cccc(Cl)c1)c1ccncc12 [CX-4945, 5-(3-chloroanilino)benzo[c][2,6]naphthyridine-8-carboxylic acid] | substantial synergy | Significant synergy | – | – | –
CC1(C)CCC(c2ccc(Cl)cc2)=C(CN2CCN(c3ccc(C(=O)NS(=O)(=O)c4ccc(N[C@H](CCN5CCOCC5)CSc5ccccc5)c(S(=O)(=O)C(F)(F)F)c4)cc3)CC2)C1 [ABT 263, 4-[4-[[2-(4-chlorophenyl)-5,5-dimethylcyclohexen-1-yl]methyl]piperazin-1-yl]-N-[4-[[(2R)-4-morpholin-4-yl-1-phenylsulfanylbutan-2-yl]amino]-3-(trifluoromethylsulfonyl)phenyl]sulfonylbenzamide] | substantial synergy | – | reduced tumor weight to a greater extent than the corresponding single therapy and JQ1 alone | reduced tumor weight to a greater extent than the corresponding single therapy and JQ1 alone | –
N#CC[C@H](C1CCCC1)n1cc(-c2ncnc3[nH]ccc23)cn1 [INC424] | – | – | reduced tumor weight to a greater extent than the corresponding single therapy and JQ1 alone | reduced tumor weight to a greater extent than the corresponding single therapy and JQ1 alone | –
COc1ccc(CCN(C)CCCC(C#N)(c2ccc(OC)c(OC)c2)C(C)C)cc1OC (centres unmarked) [verapamil] | – | – | – | – | Effect of co-incubation with MDR1 inhibitor on BBI-resistance [4]: had no effect
CN(C)CC[C@H](CSc1ccccc1)Nc1ccc(S(=O)(=O)NC(=O)c2ccc(N3CCN(Cc4ccccc4-c4ccc(Cl)cc4)CC3)cc2)cc1[N+](=O)[O-] [ABT737, 4-[4-[[2-(4-chlorophenyl)phenyl]methyl]piperazin-1-yl]-N-[4-[[(2R)-4-(dimethylamino)-1-phenylsulfanylbutan-2-yl]amino]-3-nitrophenyl] sulfonylbenzamide] | substantial synergy | Significant synergy | – | – | –
CC1(C)CCC(CN2CCN(c3ccc(C(=O)NS(=O)(=O)c4ccc(NCC5CCOCC5)c([N+](=O)[O-])c4)c(Oc4cnc5[nH]ccc5c4)c3)CC2)=C(c2ccc(Cl)cc2)C1 [ABT 199, 4-[4-[[2-(4-chlorophenyl)-4,4-dimethylcyclohexen-1-yl]methyl]piperazin-1-yl]-N-[3-nitro-4-(oxan-4-ylmethylamino)phenyl]sulfonyl-2-(1H-pyrrolo[2,3-b]pyridin-5-yloxy)benzamide] | substantial synergy | – | reduced tumor weight to a greater extent than the corresponding single therapy and JQ1 alone | reduced tumor weight to a greater extent than the corresponding single therapy and JQ1 alone | –
c1ccc2c(c1)Nc1ccccc1S2 [phenothiazine] | – | – | – | – | MED1 abundance in BRD4 immunoprecipitation [5]: decreased MED1 abundance; pBRD4 levels [6]: rapid dephosphorylation of BRD4
OCCN1CCN(CCCN2c3ccccc3Sc3ccc(Cl)cc32)CC1 [perphenazine] | substantial synergy | Significant synergy | – | – | –
